# Measurements as given in BindingDB's records for doi:10.1016/S0960-894X(00)80304-2 (1993).
# Molecular target: Leukotriene B4 receptor 1 (Cavia porcellus)
# Assay: Binding affinity against LTB4 receptor in guinea pig membrane
row,Ki [nM],Compound
1,19,CCCc1c(OCCCOc2cc(O)c(C(C)=O)cc2CC)cccc1OC(C)C(=O)O (configuration not stated) [2-{3-[3-(4-Acetyl-2-ethyl-5-hydroxy-phenoxy)-propoxy]-2-propyl-phenoxy}-propionic acid]
2,5,CCCc1c(OCCCOc2cc(O)c(C(C)=O)cc2CC)cccc1OCC(=O)O [{3-[3-(4-Acetyl-2-ethyl-5-hydroxy-phenoxy)-propoxy]-2-propyl-phenoxy}-acetic acid]
